Measured values: EP1870419A2, “Modulators of beta-amyloid peptide aggregation comprising D-amino acids” (Praecis Pharmaceuticals Incorporated, priority 1999, dated 2000)

Legend:
Aβ1-40 = target: T1, Aβ1-40 (Homo sapiens, UniProt P05067); test: Nucleation assay (turbidity at 405 nm, change in lag time); assay type: biochemical; conditions: for Nucleation assay data 0.3 µM / Nucleation assay data 1 µM / Nucleation assay data 3 µM: Table II; for Nucleation assay Δlag 1.25 µM / Nucleation assay Δlag […] / Nucleation assay Δlag 5 µM: Table I
T1 construct: first Aβ1-40 peptide is dissolved in HFIP
From the text: The nucleation assay is employed to determine the ability of test compounds to alter (e.g. inhibit) the early events in formation of β-AP fibers from monomeric β-AP. Characteristic of a nucleated polymerization mechanism, a lag time is observed prior to nucleation, after which the peptide rapidly forms fibers as reflected in a linear rise in turbidity. The time delay before polymerization of β-AP monomer can be quantified as well as the extent of formation of insoluble fiber by light scattering (turbidity). Polymerization reaches equilibrium when the maximum turbidity reaches a plateau. The turbidity of a solution of natural β-AP in the absence or presence of various concentrations of a β-amyloid modulator compound is determined by measuring the apparent absorbance of the solution at 405nm (A405 nm) over time. The threshold of sensitivity for the measurement of turbidity is in the range of 15-20 µM β-AP. […] This assay can be performed using stirring or shaking to accelerate polymerization, thereby increasing the speed of the assay. Moreover the assay can be adapted to a 96-well plate format to screen multiple compounds.
To perform the nucleation assay, first Aβ1-40 peptide is dissolved in HFIP (1,1,1,3,3,3-Hexafluoro-2-propanol; Aldrich 10,522-8) at a concentration of 2 mg peptide/ml and incubated at room temperature for 30 min. HFIP-solubilized peptide is sonicated in a waterbath sonicator for 5 min at highest setting, then evaporated to dryness under a stream of argon. The peptide film is resuspended in anhydrous dimethylsulfoxide (DMSO) at a concentration of 6.9 mg/ml (25x concentration), sonicated for 5 min as before, then filtered through a 0.2 micron nylon syringe filter (VWR cat. No. 28196-050). Test compounds are dissolved in DMSO at a 100x concentration. Four volumes of 25x Aβ1-40 peptide in DMSO are combined with one volume of test compound in DMSO in a glass vial, and mixed to produce a 1:1 molar ratio of Aβ peptide to test compound. For different molar ratios, test compounds are diluted with DMSO prior to addition to Aβ1-40, in order to keep the final DMSO and Aβ1-40 concentrations constant. […] Ten microliters of the mixture is then added to the bottom of a well of a Coming Costar ultra low binding 96-well plate (Corning Costar, Cambridge MA; cat. No. 2500). Ninety microliters of water is added to the well, the plate is shaken on a rotary shaken at a constant speed at room temperature for 30 seconds, an additional 100 µl of 2x PTL buffer (20 mM NaH2PO4, 300 mM NaCl, pH 7.4) is added to the well, the plate is reshaken for 30 seconds and a baseline (t=0) turbidity reading is taken by measuring the apparent absorbance at 405 nm using a Bio-Rad Model 450 Microplate Reader. The plate is then returned to the shaker and shaken continuously for 5 hours. Turbidity readings are taken at 15 minute intervals.
β-amyloid aggregation in the absence of any modulators results in enhanced turbidity of the natural β-AP solution (i.e., an increase in the apparent absorbance at 405 nm over time).

NT2 cells = test: Neurotoxicity assay (MTT viability), NT-2 cells; assay type: cell-based, human; conditions: aged (5 day or 8 day) aggregates, 48 hours, read-out: EC50 for toxicity
From the text: (§1) The neurotoxicity of natural β-amyloid peptide aggregates, in either the presence or absence of a β-amyloid modulator, can be tested in a cell-based assay using either a rat or human neuronally-derived cell line (PC-12 cells or NT-2 cells, respectively) and the viability indicator […]-tetrazolium bromide (MTT). (See e.g., Shearman, M.S. et al. (1994) Proc. Natl. Acad. Sci. USA 91:1470-1474; Hansen, M.B. et al. (1989) J Immun. Methods 119:203-210 for a description of similar cell-based viability assays). PC-12 is a rat adrenal pheochromocytoma cell line and is available from the American Type Culture Collection, Rockville, MD (ATCC CRL 1721). MTT (commercially available from Sigma Chemical Co.) is a chromogenic substrate that is converted from yellow to blue in viable cells, which can be detected spectrophotometrically. […]

PC12 cells = test: Neurotoxicity assay (MTT viability), PC-12 cells; assay type: cell-based, rat; conditions: aged (5 day or 8 day) aggregates, 48 hours, read-out: EC50 for toxicity
From the text: as §1

[1] = rows marked *: measured at 0.6 µM of compound
[2] = rows marked *: measured at 1.25 µM of compound
[3] = rows marked *: measured at […] of compound
[4] = 0.3 µM test compound, 5 µM Aβ1-40, ΔLag, ratio to control lag time
[5] = 1 µM test compound, 5 µM Aβ1-40, ΔLag, ratio to control lag time
[6] = 3 µM test compound, 5 µM Aβ1-40, ΔLag, ratio to control lag time
[7] = 1.25 µM test compound, 5 µM Aβ1-40, ratio to control lag time
[8] = 5 µM test compound, 5 µM Aβ1-40, ratio of lag time with compound to lag time of control
[9] = […] test compound, 5 µM Aβ1-40, ratio to control lag time

T1 sequence (P05067 672-711): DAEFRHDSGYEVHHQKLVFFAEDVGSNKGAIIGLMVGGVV

Substance | Nucleation assay Δlag 1.25 µM (Aβ1-40; [7]) | Nucleation assay Δlag 5 µM (Aβ1-40; [8]) | Nucleation assay Δlag […] (Aβ1-40; [9]) | other results
2 TFA·H-lvf-NH-NH-fvl-H [PPI-1125] | – | – | – | Nucleation assay data 0.3 µM (Aβ1-40; [1]): 2.0; Nucleation assay data 1 µM (Aβ1-40; [2]): >2.5; Nucleation assay data 3 µM (Aβ1-40; [3]): >2.5
2TFA·H-(lfkvl)-NH2 [PPI-1321] | – | – | – | Nucleation assay data 0.3 µM (Aβ1-40; [4]): <1; Nucleation assay data 1 µM (Aβ1-40; [5]): <1; Nucleation assay data 3 µM (Aβ1-40; [6]): <1
TFA·H-(Glvffl)-NH2 [PPI-1013] | – | – | – | Nucleation assay Δlag 1.25 µM (Aβ1-40; rows marked #: measured at 0.6 µM of compound): 2; Nucleation assay Δlag […] (Aβ1-40; rows marked #: measured at 1.25 µM of compound): >3; Nucleation assay Δlag 5 µM (Aβ1-40; rows marked #: measured at […] of compound): 2
TFA·H-(lf-D-Cha-vl)-NH2 [PPI-1318] | – | – | – | Nucleation assay data 0.3 µM (Aβ1-40; [4]): 1; Nucleation assay data 1 µM (Aβ1-40; [5]): 2; Nucleation assay data 3 µM (Aβ1-40; [6]): >5
TFA·H-(lf-[F5]f-vl)-NH2 [PPI-1320] | – | – | – | Nucleation assay data 0.3 µM (Aβ1-40; [4]): 1; Nucleation assay data 1 µM (Aβ1-40; [5]): 3; Nucleation assay data 3 µM (Aβ1-40; [6]): >5
TFA·H-(lf-[p-F]f-vl)-NH2 [PPI-1319] | – | – | – | Nucleation assay data 0.3 µM (Aβ1-40; [4]): 1; Nucleation assay data 1 µM (Aβ1-40; [5]): >5; Nucleation assay data 3 µM (Aβ1-40; [6]): >5
TFA·H-(lvffa)-dimethylamide [PPI-993] | 1 | 1 | 1 | –
TFA·H-(lvffa)-isopropylamide [PPI-992] | 1 | 3 | 1 | –
TFA·N,N-diethyl-(Gaffvl)-NH2 [PPI-1005] | 1 | 3 | 3 | –
TFA·N,N-diethyl-(affvl)-NH, [PPI-1006] | 1 | 1 | 1 | –
TFA·N,N-dimethyl-(Gaffvl)-NH2 [PPI-803] | <1 | <1 | <1 | –
TFA·N,N-dimethyl-(affvl)-NH2 [PPI-913] | 1 | 1 | 1 | –
TFA·N-ethyl-(Gaffvl)-NH2 [PPI-969] | 3 | >5 | >5 | –
TFA·N-isopropyl-(Gaffvl)-NH2 [PPI-970] | 1 | >5 | >5 | –
TFA·N-methyl-(Gaffvl)-NH2 [PPI-968] | 2 | >5 | >5 | –
TFA•N-methyl-(lvffl)-NH2 [PPI-1019] | – | – | – | Nucleation assay data 0.3 µM (Aβ1-40; [1]): 2.0; Nucleation assay data 1 µM (Aβ1-40; [2]): >2.5; Nucleation assay data 3 µM (Aβ1-40; [3]): >2.5
aged Aβ1-40 aggregates: Aβ1-40 peptide solution incubated at 37 °C for eight days to allow fibrils to form | – | – | – | EC50 (NT2 cells): 1000 to 2000 nM; EC50 (PC12 cells): 1000 to 2000 nM
